From US11331299B2, “Medicinal use of serrulatane diterpenes” (The University of Sydney, priority 2016, dated 2022)
Like-named read-outs stand apart in the source and are kept apart here.

Tested on: 280 human cancer cell lines
Experiment: OncoPanel cell proliferation assay (10-day)
Assay type: cell-based
Details: Homo sapiens; for IC50: read-out: Cell Count IC50; for EC50: read-out: Cell Count EC50; for GI50: read-out: Cell Count GI50
[1] = SJRH30, SJRH30, Soft Tissue - Sarcoma
[2] = SJSA-1, SJSA1, Soft Tissue - Osteosarcoma
[3] = SK-LMS-1, SK-LMS-1, Soft Tissue - Sarcoma
[4] = SK-MEL3, SK-MEL-3, Skin (Melanoma)
[5] = SK-MEL-1, SK-MEL-1, Skin (Melanoma)
[6] = SK-MEL-28, SK-MEL-28, Skin (Melanoma)
[7] = SK-OV-3, SKOV3, Female GU - Ovary
[8] = SK-UT-1, SK-UT-1, Soft Tissue - Sarcoma
[9] = SW579, SW579, Endocrine - Thyroid
[10] = SW684, SW684, Soft Tissue - Sarcoma

CC(C)=CCC[C@H](C)[C@@H]1CC[C@@H](C)c2c1cc(C)c(O)c2O [Compound 4, 7,8-dihydroxyserrulat-14-ene]
IC50 (SCaBER, Bladder): 16.9 µM
EC50 (SH-4, Skin (Melanoma)): 11.6 µM
GI50 (SH-4, Skin (Melanoma)): 11.5 µM
IC50 (SH-4, Skin (Melanoma)): 11.6 µM
EC50 (SHP77, SHP-77, Lung - SCLC): 6.83 µM
GI50 (SHP77, SHP-77, Lung - SCLC): 6.75 µM
IC50 (SHP77, SHP-77, Lung - SCLC): 6.83 µM
EC50 [1]: 3.68 µM
GI50 [1]: 3.68 µM
IC50 [1]: 3.68 µM
EC50 [2]: 7.45 µM
GI50 [2]: 7.45 µM
IC50 [2]: 7.45 µM
EC50 (SK-BR-3, SK-BR-3, Breast): 10.3 µM
GI50 (SK-BR-3, SK-BR-3, Breast): 9.97 µM
IC50 (SK-BR-3, SK-BR-3, Breast): 10.3 µM
EC50 [3]: 9.04 µM
GI50 [3]: 8.98 µM
IC50 [3]: 9.04 µM
EC50 [4]: > 30 µM
GI50 [4]: > 30 µM
IC50 [4]: > 30 µM
EC50 [5]: > 30 µM
GI50 [5]: > 30 µM
IC50 [5]: > 30 µM
EC50 [6]: 11.2 µM
GI50 [6]: 11.1 µM
IC50 [6]: 11.2 µM
EC50 (SK-MES-1, SKMES1, Lung - NSCLC): 11.6 µM
GI50 (SK-MES-1, SKMES1, Lung - NSCLC): 11.5 µM
IC50 (SK-MES-1, SKMES1, Lung - NSCLC): 11.6 µM
EC50 (SK-N-AS, CNS - Neuroblastoma): 5.86 µM
GI50 (SK-N-AS, CNS - Neuroblastoma): 5.75 µM
IC50 (SK-N-AS, CNS - Neuroblastoma): 5.86 µM
EC50 (SK-N-DZ, CNS - Neuroblastoma): 11.9 µM
GI50 (SK-N-DZ, CNS - Neuroblastoma): 11.5 µM
IC50 (SK-N-DZ, CNS - Neuroblastoma): 11.9 µM
EC50 (SK-N-FI, CNS - Neuroblastoma): 21.5 µM
GI50 (SK-N-FI, CNS - Neuroblastoma): 20.6 µM
IC50 (SK-N-FI, CNS - Neuroblastoma): 21.5 µM
EC50 [7]: 8.43 µM
GI50 [7]: 8.33 µM
IC50 [7]: 8.43 µM
EC50 (SK-PN-DW, Stomach): 4.91 µM
GI50 (SK-PN-DW, Stomach): 4.88 µM
IC50 (SK-PN-DW, Stomach): 4.91 µM
EC50 [8]: 5.49 µM
GI50 [8]: 5.46 µM
IC50 [8]: 5.49 µM
EC50 (SKO-007, SKO-007, Myeloma): 4.66 µM
GI50 (SKO-007, SKO-007, Myeloma): 4.55 µM
IC50 (SKO-007, SKO-007, Myeloma): 4.71 µM
EC50 (SNB-19, SNB-19, CNS - Glioma): 13 µM
GI50 (SNB-19, SNB-19, CNS - Glioma): 12.9 µM
IC50 (SNB-19, SNB-19, CNS - Glioma): 13 µM
EC50 (SNU1, SNU-1, Stomach): 6.99 µM
GI50 (SNU1, SNU-1, Stomach): 6.98 µM
IC50 (SNU1, SNU-1, Stomach): 6.99 µM
EC50 (SNU-5, SNU-5, Stomach): 14.4 µM
GI50 (SNU-5, SNU-5, Stomach): 14.2 µM
IC50 (SNU-5, SNU-5, Stomach): 14.4 µM
EC50 (SNU-16, SNU-16, Stomach): 11 µM
GI50 (SNU-16, SNU-16, Stomach): 11 µM
IC50 (SNU-16, SNU-16, Stomach): 11 µM
EC50 (SNU-423, SNU-423, Liver): 9.3 µM
GI50 (SNU-423, SNU-423, Liver): 9.28 µM
IC50 (SNU-423, SNU-423, Liver): 9.31 µM
EC50 (SR, Lymphoma): 4.39 µM
GI50 (SR, Lymphoma): 4.39 µM
IC50 (SR, Lymphoma): 4.39 µM
EC50 (ST486, ST486, Lymphoma): 2.66 µM
GI50 (ST486, ST486, Lymphoma): 2.65 µM
IC50 (ST486, ST486, Lymphoma): 2.66 µM
EC50 (SU-DHL10, SU-DHL-10, Lymphoma): 7.68 µM
GI50 (SU-DHL10, SU-DHL-10, Lymphoma): 7.67 µM
IC50 (SU-DHL10, SU-DHL-10, Lymphoma): 7.68 µM
EC50 (SU-DHL-4, SU-DHL-4, Lymphoma): 5.74 µM
GI50 (SU-DHL-4, SU-DHL-4, Lymphoma): 5.74 µM
IC50 (SU-DHL-4, SU-DHL-4, Lymphoma): 5.74 µM
EC50 (SU-DHL-5, SU-DHL-5, Lymphoma): 3.8 µM
GI50 (SU-DHL-5, SU-DHL-5, Lymphoma): 3.8 µM
IC50 (SU-DHL-5, SU-DHL-5, Lymphoma): 3.8 µM
EC50 (SU-DHL-8, SU-DHL-8, Lymphoma): 3.9 µM
GI50 (SU-DHL-8, SU-DHL-8, Lymphoma): 3.9 µM
IC50 (SU-DHL-8, SU-DHL-8, Lymphoma): 3.9 µM
EC50 (SU.86.86, SU.86.86, Pancreas): > 30 µM
GI50 (SU.86.86, SU.86.86, Pancreas): > 30 µM
IC50 (SU.86.86, SU.86.86, Pancreas): > 30 µM
EC50 (SUP-T1, SUP-T1, Lymphoma): 6.51 µM
GI50 (SUP-T1, SUP-T1, Lymphoma): 6.49 µM
IC50 (SUP-T1, SUP-T1, Lymphoma): 6.51 µM
EC50 (SW48, SW48, Colon): 13 µM
GI50 (SW48, SW48, Colon): 13 µM
IC50 (SW48, SW48, Colon): 13 µM
EC50 [9]: 11 µM
GI50 [9]: 11 µM
IC50 [9]: 11 µM
EC50 [10]: > 30 µM
GI50 [10]: > 30 µM
IC50 [10]: > 30 µM
EC50 (SW837, SW837, Colon): 18.9 µM
